Results: the NIST ThermoML archive (doi:10.1021/je100507n)
± gives the expanded uncertainty stated by the source.

Experiments:
[1] = for mass density: 101.33 kPa, Buoyancy - hydrostatic balance with magnetic suspension - one sinker; for mass density / surface tension liquid-gas: Liquid; for surface tension liquid-gas: Ring tensiometer
[2] = Molar enthalpy of transition or fusion

CCCC[n+]1ccccc1.O=S(=O)([N-]S(=O)(=O)C(F)(F)F)C(F)(F)F [1-butylpyridinium bis[(trifluoromethyl)sulfonyl]imide]
mass density ([1]; 298.15 K): 1454.7 ± 12 kg/m3
surface tension liquid-gas ([1]; 298.15 K): 33.4 ± 1 mN/m
mass density ([1]; 303.15 K): 1450.6 ± 12 kg/m3
surface tension liquid-gas ([1]; 303.15 K): 33.2 ± 1 mN/m
mass density ([1]; 308.15 K): 1446.2 ± 11 kg/m3
surface tension liquid-gas ([1]; 308.15 K): 32.9 ± 0.9 mN/m
mass density ([1]; 313.15 K): 1441.7 ± 11 kg/m3
surface tension liquid-gas ([1]; 313.15 K): 32.8 ± 0.9 mN/m
mass density ([1]; 318.15 K): 1437.2 ± 11 kg/m3
surface tension liquid-gas ([1]; 318.15 K): 32.4 ± 0.9 mN/m
mass density ([1]; 323.15 K): 1433.2 ± 11 kg/m3
surface tension liquid-gas ([1]; 323.15 K): 32.1 ± 0.9 mN/m
mass density ([1]; 328.15 K): 1429.1 ± 11 kg/m3
surface tension liquid-gas ([1]; 328.15 K): 32 ± 0.9 mN/m
mass density ([1]; 333.15 K): 1424.5 ± 11 kg/m3
surface tension liquid-gas ([1]; 333.15 K): 31.8 ± 0.9 mN/m
mass density ([1]; 338.15 K): 1420.5 ± 11 kg/m3
Normal melting temperature ([1]; Crystal, DTA): 25.90 ± 1 °C
Molar enthalpy of transition or fusion ([2]; Crystal): 6.67 ± 0.765 kcal/mol

CC[n+]1ccccc1.O=S(=O)([N-]S(=O)(=O)C(F)(F)F)C(F)(F)F [1-ethylpyridinium bis[(trifluoromethyl)sulfonyl]imide]
mass density ([1]; 288.15 K): 1545.7 ± 13 kg/m3
surface tension liquid-gas ([1]; 288.15 K): 37.7 ± 1.1 mN/m
mass density ([1]; 293.15 K): 1541.4 ± 13 kg/m3
surface tension liquid-gas ([1]; 293.15 K): 37.6 ± 1.1 mN/m
mass density ([1]; 298.15 K): 1537.5 ± 13 kg/m3
surface tension liquid-gas ([1]; 298.15 K): 37.4 ± 1.1 mN/m
mass density ([1]; 303.15 K): 1533.2 ± 13 kg/m3
surface tension liquid-gas ([1]; 303.15 K): 37.1 ± 1.1 mN/m
mass density ([1]; 308.15 K): 1529.1 ± 13 kg/m3
surface tension liquid-gas ([1]; 308.15 K): 36.9 ± 1.1 mN/m
mass density ([1]; 313.15 K): 1524.9 ± 13 kg/m3
surface tension liquid-gas ([1]; 313.15 K): 36.7 ± 1 mN/m
mass density ([1]; 318.15 K): 1520.5 ± 13 kg/m3
surface tension liquid-gas ([1]; 318.15 K): 36.6 ± 1 mN/m
mass density ([1]; 323.15 K): 1516.4 ± 12 kg/m3
surface tension liquid-gas ([1]; 323.15 K): 36.4 ± 1 mN/m
mass density ([1]; 328.15 K): 1512.2 ± 12 kg/m3
surface tension liquid-gas ([1]; 328.15 K): 36.1 ± 1 mN/m
mass density ([1]; 333.15 K): 1507.8 ± 12 kg/m3
surface tension liquid-gas ([1]; 333.15 K): 35.9 ± 1 mN/m
mass density ([1]; 338.15 K): 1503.7 ± 12 kg/m3
surface tension liquid-gas ([1]; 338.15 K): 35.6 ± 1 mN/m
Normal melting temperature ([1]; Crystal 1, DTA): 30.50 ± 1 °C
Triple point temperature ([1]; Crystal 2, DTA): 292.8 ± 0.5 K
Glass transition temperature ([1]; DTA): -37.91 ± 3 °C
Molar enthalpy of transition or fusion ([2]; Crystal 1): 4.52 ± 0.55 kcal/mol

CCCCC[n+]1ccccc1.O=S(=O)([N-]S(=O)(=O)C(F)(F)F)C(F)(F)F [1-pentylpyridinium bis(trifluoromethylsulfonyl)amide]
mass density ([1]; 283.15 K): 1433.1 ± 11 kg/m3
surface tension liquid-gas ([1]; 283.15 K): 33.1 ± 1 mN/m
mass density ([1]; 288.15 K): 1429.6 ± 11 kg/m3
surface tension liquid-gas ([1]; 288.15 K): 32.8 ± 0.9 mN/m
mass density ([1]; 293.15 K): 1425.9 ± 11 kg/m3
surface tension liquid-gas ([1]; 293.15 K): 32.7 ± 0.9 mN/m
mass density ([1]; 298.15 K): 1421.4 ± 11 kg/m3
surface tension liquid-gas ([1]; 298.15 K): 32.5 ± 0.9 mN/m
mass density ([1]; 303.15 K): 1416.9 ± 11 kg/m3
surface tension liquid-gas ([1]; 303.15 K): 32.2 ± 0.9 mN/m
mass density ([1]; 308.15 K): 1412.8 ± 11 kg/m3
surface tension liquid-gas ([1]; 308.15 K): 32 ± 0.9 mN/m
mass density ([1]; 313.15 K): 1408.3 ± 11 kg/m3
surface tension liquid-gas ([1]; 313.15 K): 31.8 ± 0.9 mN/m
mass density ([1]; 318.15 K): 1403.8 ± 11 kg/m3
surface tension liquid-gas ([1]; 318.15 K): 31.5 ± 0.9 mN/m
mass density ([1]; 323.15 K): 1398.9 ± 11 kg/m3
surface tension liquid-gas ([1]; 323.15 K): 31.3 ± 0.9 mN/m
mass density ([1]; 328.15 K): 1394.2 ± 11 kg/m3
surface tension liquid-gas ([1]; 328.15 K): 31.1 ± 0.9 mN/m
mass density ([1]; 333.15 K): 1389.3 ± 10 kg/m3
surface tension liquid-gas ([1]; 333.15 K): 30.8 ± 0.9 mN/m
mass density ([1]; 338.15 K): 1385.1 ± 10 kg/m3
surface tension liquid-gas ([1]; 338.15 K): 30.5 ± 0.9 mN/m
Normal melting temperature ([1]; Crystal, DTA): -0.31 ± 1 °C
Glass transition temperature ([1]; DTA): -76.93 ± 3 °C
Molar enthalpy of transition or fusion ([2]; Crystal): 5.45 ± 0.645 kcal/mol
